Test results reported in publication PMC3427316 (PLoS ONE, 2012).

Experiments:
[1] = biological target: NA of D0 isolate A/Paris/7976/2010 (223I 100%, 275H 100%) (Influenza A virus, UniProt V9TJZ0); type: biochemical, influenza A(H1N1)pdm09 virus; conditions: read-out: Ki +/− SD
H1N1pdm09 virus = conditions: human, in vivo

| SMILES | Ki [1] [nM] | impact on viral shedding (H1N1pdm09 virus) | symptoms (H1N1pdm09 virus) |
| --- | --- | --- | --- |
| CCC(CC)O[C@@H]1C=C(C(=O)O)C[C@H](N)[C@H]1NC(C)=O [OC, oseltamivir carboxylate] | 0.28 | – | – |
| CC(=O)N[C@H]1[C@H]([C@H](O)[C@H](O)CO)OC(C(=O)O)=C[C@@H]1N=C(N)N [ZAN, zanamivir] | – | no impact | did not improve |
